{
  "source": "patent US12624068B2",
  "about": "“Exon skipping by peptide nucleic acid derivatives” (OliPass Corporation, priority 2016, dated 2026)",
  "key": {"10-mer complementary DNA": {"tested_on": "10-mer complementary DNA", "assay": "Tm between PNA derivatives and 10-mer complementary DNA (N- or C-terminal)", "format": "binding", "settings": "uncorrected", "in_short": "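Tm read by UV at 260 nm for duplexes formed by annealing (90 °C for a minute, slow cooling to ambient) of equimolar 4 μM PNA and complementary 10-mer DNA targeting N- or C-terminal, in 10 mM sodium phosphate, 100 mM NaCl, pH 7.16.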"}, "rat SNAP25 pre-mRNA": {"tested_on": "rat SNAP25 pre-mRNA", "assay": "SNAP25 nested PCR for exon skipping in PC12 cells", "format": "cell-based", "description": "PC12 cells were maintained in RPMI 1640 medium supplemented with 5% FBS, 10% horse serum, 1% streptomycin/penicillin, 1% L-glutamine, and 1% sodium pyruvate under 5% CO2 atmosphere at 37° C. Cells grown in 60 mm culture dish containing 5 mL culture medium were treated with “SNAP-ASO 3” at 0 (negative control), 10, 100 or 1,000 zM. [RNA Extraction & cDNA Synthesis by One-step PCR] Following an incubation with “SNAP-ASO 3” for 42 hours, the cells were treated with 100 μg/mL cycloheximide for another 6 hours in order to freeze the ribosomal translation. Then total RNA was extracted using “Universal RNA Extraction Kit” (Cat. Number 9767, Takara) according to the manufacturer's instructions. […] NO: 126); and SNAP-exon 14_reverse: (5'→3') […] [Nested PCR Amplification] […] NO: 128); SNAP-exon 14n_reverse: (5'→3') […] [Identification of Exon Skipping Products] The PCR products were subjected to electrophoretic separation on a 2% agarose gel. The bands of target size were collected and analyzed by Sanger Sequencing."}, "full-length SNAP25 mRNA": {"tested_on": "full-length SNAP25 mRNA", "assay": "SNAP25 nested qPCR in PC12 cells", "format": "cell-based, rat", "description": "[Cell Culture & ASO Treatment] PC12 cells grown in 60 mm culture dish containing 5 mL culture medium were treated with “SNAP-ASO 3” at 0 (negative control), 10, 100 or 1,000 zM. (2 culture dishes per ASO concentration) [RNA Extraction & cDNA Synthesis by One-step RT-PCR] Following an incubation with “SNAP-ASO 3” for 42 hours, the cells were treated 100 μg/mL cycloheximide for another 6 hours to freeze the ribosomal translation. Then total RNA was extracted from cells using “Universal RNA Extraction Kit” (Cat. Number 9767, Takara) according to the manufacturer's instructions. […] NO: 130); and SNAP-exon 14_reverse: (5'→3') […] [Nested qPCR Amplification] […] NO: 132); and SNAP-exon 8q_reverse: (5'→3') […] The qPCR reaction was followed with a Taqman probe of [(5'→3') 5,6-[…] NO: 134)] targeting the junction of exon 7 and exon 8 in order to quantify the full-length SNAP25 mRNA."}, "[1]": {"tested_on": "full-length human SNAP25 mRNA", "assay": "SNAP25 qPCR in SiMa cells", "format": "cell-based", "settings": "100 aM", "description": "[Cell Culture & ASO Treatment] SiMa cells were grown in 60 mm culture dish containing 5 mL culture medium, and were treated with “SNAP-ASO 3” at 0 zM (negative control), 1 zM, 10 zM, 100 zM or 1 aM, 10 aM, or 100 aM. (2 culture dishes per ASO concentration) [RNA Extraction & cDNA Synthesis] Total RNA was extracted from cells using “RNeasy Mini Kit” (Cat. Number 74106, Qiagen) according to the manufacturer's instructions. […] [qPCR Amplification] The PCR reactions were monitored with a Taqman probe [(5' 3') 56-[…] NO: 137)] targeting the junction of exon 6 and exon 7 against a set of exon-specific primers [SNAP-exon 6_forward: (5'→3') […] NO: 138); and SNAP-exon 8_reverse(2): (5'→3') […] NO: 139)]."}, "mdx mice [2]": {"tested_on": "mdx mice", "assay": "Unscheduled death, sacrifice or lymphoma in chronically treated mdx mice", "format": "in vivo, mouse", "settings": "DMD-ASO 1 50 pmole/Kg, DMD-ASO 2 or DMD-ASO 6 10 pmole/Kg, subcutaneous 2× per week, 66 weeks", "from_the_text": "[Grouping & ASO Treatment] Male mdx mice (7 weeks old) were randomly assigned to 4 groups of 0 (mdx negative control), 10, 50, and 200 pmole/Kg “DMD-ASO 1” based on individual grip strength scores by grip test. (N=12 per group) A satellite group of 12 male C57BL/6 mice (7 weeks old) was included in this study as the wild type negative control group for the full-length dystrophin expression level.\nThe 50 and 200 pmole/Kg group subcutaneously received “DMD-ASO 1” as dissolved in PBS, 2× per week until the final sacrifice in Week 43. In the meantime, the 10 pmole/Kg group subcutaneously received “DMD-ASO 1” initially 2× per week during Week 0 to 8, and 3× per week afterwards to increase the ASO exposure.\n[Miscellaneous Findings] There were three cases of unscheduled sacrifice or death (Weeks 26, 39 and 43) in the mdx negative control group due to a large mass of muscular lymphoma developed most likely by chronic muscular inflammation.\n“DMD-ASO 1”, “DMD-ASO 2” and “DMD-ASO 6” were evaluated for their physiological effects in male mdx mice by long term subcutaneous administration. In this evaluation the animals were not subjected to physical tests requiring muscular stress in order to keep the transcription of the dystrophin gene undisturbed by excessive muscular stimulation.\n[Animals & Grouping] Male mdx mice (6 weeks old) were randomly assigned to 4 groups of the mdx negative control (no ASO treatment), “DMD-ASO 1” 50 pmole/Kg, “DMD-ASO 2” […], and “DMD-ASO 6” […] based on the body weight. (N=12-13 per group) 12 male C57BL/6 mice (6 weeks old) were adopted as the wild type (WT) negative control group.\n[Injection Solutions & ASO Treatment] Aqueous mother stock solutions of the ASOs were serially diluted in PBS to prepare the injection solutions of 25 nM “DMD-ASO 1” for 50 pmole/Kg “DMD-ASO 1”, 5 nM “DMD-ASO 2” for “DMD-ASO 2” 10 pmole/Kg, and 5 nM “DMD-ASO 6” for “DMD-ASO 6” 10 pmole/Kg. The animals were subcutaneously administered with the injection solutions at 2 mL/Kg, 2× per week."}, "mdx mice [3]": {"tested_on": "mdx mice", "assay": "Walking distance on tread mill in mdx mice", "format": "in vivo, mouse", "settings": "first 30 weeks, injection solutions without Tween 80", "description": "“DMD-ASO 2” was chronically administered to mdx mice to evaluate its ability to improve muscle function by the walking distance on tread mill, and to inhibit the muscle degradation by the serum levels of creatine kinase (CK) and myoglobin.\n[Animals & Grouping] Male mdx mice (6 weeks old) were randomly assigned to three groups of the mdx negative control (no ASO treatment), “DMD-ASO 2” 10 pmole/Kg, and “DMD-ASO 2” […] based on the body weight. (N=16 per group) 12 male C57BL/6 mice (6 weeks old) were adopted as the wild type (WT) negative control group.\n[Injection Solutions & ASO Treatment] An aqueous mother stock solution of “DMD-ASO 2” was diluted either in PBS or in PBS supplemented with 0.1% Tween 80 to prepare injection solutions of […] “DMD-ASO 2” for 10 pmole/Kg and 30 pmole/Kg “DMD-ASO 2”, respectively. Supplementation of PBS injection solution with 0.1% Tween 80 was considered to be necessary to prevent the ASO molecules from sticking to plastic injection vials, pipette tips, and syringes.\n[Walking Distance on Tread Mill] During the first 30 weeks post grouping, the animals were administered with the injection solutions without Tween 80 2× per week at 2 mL/Kg. Starting from Week 7, the animals were subjected to walking on a tread mill (Model #LE8710, PanLab) on a weekly basis. […]"}, "[4]": {"tested_on": "serum creatine kinase (CK)", "assay": "Serum creatine kinase level in mdx mice", "format": "in vivo", "settings": "Week 48", "description": "(§1) [Terminal Sacrifice] In Week 48, the animals were subjected to terminal sacrifice for blood sampling. The blood samples were analyzed for the serum level of CK (Creatine Kinase Activity Assay Kit, Cat. Number ab155901, Abcam) and myoglobin (Myoglobin ELISA Kit, Cat. Number ab210965, Abcam) to assess the degree of muscle degradation according to the manufacturer's instructions. Muscle tissues were analyzed by western blot for the full-length dystrophin.\n(§2) [Terminal Sacrifice] All the survived animals were sacrificed for blood sampling in Week 66 post the grouping. The blood samples were subjected to ELISA assays for serum creatine kinase (CK) and serum myoglobin as described in “DMD Example 6”."}, "serum myoglobin": {"tested_on": "serum myoglobin", "assay": "Serum myoglobin level in mdx mice", "format": "in vivo", "description": "as §1, §2"}, "full-length dystrophin": {"tested_on": "full-length dystrophin", "assay": "Dystrophin western blot in triceps of mdx mice", "format": "in vivo", "settings": "Week 48", "description": "[Full-length Dystrophin Expression in Triceps by Western Blot] Following homogenization at liquid nitrogen temperature, muscle (triceps) samples were subjected to lysis in RIPA buffer supplemented with 1% SDS. The protein concentration in each lysate was quantified by BCA assay against the BSA standard. […] of protein of each lysate was subjected to electrophoretic separation on an 8% PAGE gel. Then the PVDF membrane was probed with a C-terminal targeting dystrophin antibody (Cat. Number ab154168, Abcam)."}},
  "note": "[C(1O2)] = modified PNA monomer acting as cytosine, C(pOq) type, 1O2; [A(5)] = modified PNA monomer acting as adenine, A(p) type, p=5; [A(6)] = modified PNA monomer acting as adenine, A(p) type, p=6; [G(5)] = modified PNA monomer acting as guanine, G(p) type, p=5; {Fethoc} = N-terminal Fethoc cap; {NH2} = C-terminal amide",
  "data": [
    {"substance": "Fethoc-TG(5)T-TA(6)C-C(1O2)CT-GG(5)G-A(5)T-NH2 (antisense TGTTACCCTGGGAT; all peptide nucleic acid (PNA), [G(5)] at 2, 11, [A(6)] at 5, [C(1O2)] at 7, [A(5)] at 13, 5' {Fethoc}, 3' {NH2}; peptide nucleic acid written N to C) [SNAP-ASO 3]", "values": [
      {"measurement": "Tm Value, 10-mer DNA against C-Terminal", "setting": "10-mer complementary DNA", "value": 88.7, "unit": "°C"},
      {"measurement": "Tm Value, 10-mer DNA against N-Terminal", "setting": "10-mer complementary DNA", "value": 77.3, "unit": "°C"},
      {"measurement": "intensity of the full-length SNAP25 mRNA by nested PCR", "setting": "rat SNAP25 pre-mRNA; PC12 cells, 10, 100 or 1,000 zM", "value": "decreased most in the cells treated with 10 zM"},
      {"measurement": "SNAP25 exon skipping by nested PCR", "setting": "rat SNAP25 pre-mRNA; PC12 cells, 10 zM, 42 hours then cycloheximide 6 hours", "value": "yielded a faint PCR band assignable to the skipping of exons 5-7"},
      {"measurement": "decrease of full-length SNAP25 mRNA level (qPCR)", "setting": "full-length SNAP25 mRNA; PC12 cells, 10 zM", "value": "~50", "unit": "%"},
      {"measurement": "decrease of full-length SNAP25 mRNA level (qPCR)", "setting": "full-length SNAP25 mRNA; PC12 cells, 100 zM", "value": 20, "unit": "%"},
      {"measurement": "decrease of full-length SNAP25 mRNA level (qPCR)", "setting": "full-length SNAP25 mRNA; PC12 cells, 1,000 zM", "value": "slightly higher than the level of the cells without ASO treatment"},
      {"measurement": "inhibition of full-length human SNAP25 mRNA level (qPCR)", "setting": "[1]", "value": 40, "unit": "%"}
    ]},
    {"substance": "Fethoc-TTG(6)CA(5)G-AG(6)C-C(1O2)TC-AA(5)A-A(5)T-NH2 (antisense TTGCAGAGCCTCAAAAT; Fethoc N-cap, C-terminal amide, chemistry not fully specified) [DMD-ASO 2]", "values": [
      {"measurement": "premature deaths (unscheduled death or sacrifice)", "setting": "mdx mice [2]", "value": "one death in Week 56 and another in Week 62"},
      {"measurement": "walking distance on tread mill compared to the mdx negative control group", "setting": "mdx mice [3]", "value": "failed to show any significant improvements"},
      {"measurement": "serum CK level smaller than the mdx negative control group by", "setting": "[4]; 10 pmole/Kg", "value": 58, "unit": "%"},
      {"measurement": "serum CK level smaller than the mdx negative control group by", "setting": "[4]; 30 pmole/Kg", "value": 38, "unit": "%"},
      {"measurement": "serum myoglobin level smaller than the mdx negative control group by", "setting": "serum myoglobin; 10 pmole/Kg, Week 48", "value": 67, "unit": "%"},
      {"measurement": "serum myoglobin level smaller than the mdx negative control group by", "setting": "serum myoglobin; 30 pmole/Kg, Week 48", "value": 58, "unit": "%"},
      {"measurement": "serum myoglobin level smaller than the mdx negative control group by", "setting": "serum myoglobin; DMD-ASO 1 50 pmole/Kg, DMD-ASO 2 or DMD-ASO 6 10 pmole/Kg, 2× per week, Week 66", "value": 49, "unit": "%"},
      {"measurement": "130K dystrophin band intensity (western blot, triceps)", "setting": "full-length dystrophin; 10 pmole/Kg", "value": "considerably stronger"},
      {"measurement": "117K dystrophin band (western blot, triceps)", "setting": "full-length dystrophin; 10 and 30 pmole/Kg", "value": "markedly stronger"}
    ]}
  ]
}
